In ChEMBL document CHEMBL4665756, “Synthesis, crystal structure and biological activity of novel analogues of tricyclic drugs” (Bioorg Med Chem Lett, 2020):

How the values were obtained:
[1] = molecular target: Sodium-dependent serotonin transporter (Homo sapiens, UniProt P31645); experiment: Binding affinity to SERT (unknown origin)
Histamine H1 receptor = Histamine H1 receptor (Homo sapiens, UniProt P35367); experiment: Binding affinity to H1 receptor (unknown origin)
[2] = molecular target: 5-hydroxytryptamine receptor 7 (Homo sapiens, UniProt P34969); experiment: Binding affinity to 5HT7 receptor (unknown origin)
[3] = molecular target: 5-hydroxytryptamine receptor 6 (Homo sapiens, UniProt P50406); experiment: Binding affinity to 5HT6 receptor (unknown origin)
[4] = molecular target: 5-hydroxytryptamine receptor 2A (Homo sapiens, UniProt P28223); experiment: Binding affinity to 5HT2A receptor (unknown origin)
[5] = molecular target: T1, 5-hydroxytryptamine receptor 1A (Homo sapiens, UniProt P08908); experiment: Binding affinity to 5HT1A receptor (unknown origin)
T1 sequence (P08908 whole entry): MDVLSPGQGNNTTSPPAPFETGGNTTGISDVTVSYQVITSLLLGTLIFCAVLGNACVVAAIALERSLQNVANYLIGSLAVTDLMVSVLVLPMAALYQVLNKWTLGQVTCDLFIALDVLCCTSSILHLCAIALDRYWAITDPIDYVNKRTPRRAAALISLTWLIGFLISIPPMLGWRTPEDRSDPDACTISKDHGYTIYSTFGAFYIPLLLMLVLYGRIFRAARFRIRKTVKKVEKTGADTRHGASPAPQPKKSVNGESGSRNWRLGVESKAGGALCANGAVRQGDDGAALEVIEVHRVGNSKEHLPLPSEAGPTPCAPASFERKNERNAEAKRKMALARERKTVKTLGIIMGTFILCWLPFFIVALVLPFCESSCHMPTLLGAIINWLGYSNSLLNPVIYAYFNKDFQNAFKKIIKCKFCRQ

D(2) dopamine receptor = D(2) dopamine receptor (Homo sapiens, UniProt P14416); experiment: Binding affinity to D2 receptor (unknown origin)
D(2) dopamine receptor, sequence (P14416 whole entry): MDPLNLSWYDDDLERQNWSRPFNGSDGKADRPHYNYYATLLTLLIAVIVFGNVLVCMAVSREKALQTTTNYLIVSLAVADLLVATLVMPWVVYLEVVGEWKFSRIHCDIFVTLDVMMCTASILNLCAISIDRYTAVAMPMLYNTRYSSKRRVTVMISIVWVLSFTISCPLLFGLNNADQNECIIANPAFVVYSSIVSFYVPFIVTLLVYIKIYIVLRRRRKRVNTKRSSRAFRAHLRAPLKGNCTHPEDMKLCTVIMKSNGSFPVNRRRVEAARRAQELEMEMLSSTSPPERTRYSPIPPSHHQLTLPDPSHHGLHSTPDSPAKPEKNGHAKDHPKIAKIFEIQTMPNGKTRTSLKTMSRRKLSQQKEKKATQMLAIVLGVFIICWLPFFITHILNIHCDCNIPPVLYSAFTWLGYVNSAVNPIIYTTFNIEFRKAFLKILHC

5-hydroxytryptamine receptor 2A, sequence (P28223 whole entry): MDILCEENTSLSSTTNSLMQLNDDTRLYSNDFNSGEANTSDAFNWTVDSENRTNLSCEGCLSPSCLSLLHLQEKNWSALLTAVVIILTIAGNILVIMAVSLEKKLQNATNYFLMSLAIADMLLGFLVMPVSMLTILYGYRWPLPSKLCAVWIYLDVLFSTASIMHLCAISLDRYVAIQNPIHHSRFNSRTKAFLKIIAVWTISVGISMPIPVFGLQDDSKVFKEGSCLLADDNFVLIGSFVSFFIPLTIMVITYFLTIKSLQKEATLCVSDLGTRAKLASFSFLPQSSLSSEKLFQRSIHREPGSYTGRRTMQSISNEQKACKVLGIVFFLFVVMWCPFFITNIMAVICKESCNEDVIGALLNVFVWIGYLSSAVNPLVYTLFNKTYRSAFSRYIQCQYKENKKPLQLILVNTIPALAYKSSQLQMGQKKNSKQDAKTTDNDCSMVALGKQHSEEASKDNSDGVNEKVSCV
Histamine H1 receptor, sequence (P35367 whole entry): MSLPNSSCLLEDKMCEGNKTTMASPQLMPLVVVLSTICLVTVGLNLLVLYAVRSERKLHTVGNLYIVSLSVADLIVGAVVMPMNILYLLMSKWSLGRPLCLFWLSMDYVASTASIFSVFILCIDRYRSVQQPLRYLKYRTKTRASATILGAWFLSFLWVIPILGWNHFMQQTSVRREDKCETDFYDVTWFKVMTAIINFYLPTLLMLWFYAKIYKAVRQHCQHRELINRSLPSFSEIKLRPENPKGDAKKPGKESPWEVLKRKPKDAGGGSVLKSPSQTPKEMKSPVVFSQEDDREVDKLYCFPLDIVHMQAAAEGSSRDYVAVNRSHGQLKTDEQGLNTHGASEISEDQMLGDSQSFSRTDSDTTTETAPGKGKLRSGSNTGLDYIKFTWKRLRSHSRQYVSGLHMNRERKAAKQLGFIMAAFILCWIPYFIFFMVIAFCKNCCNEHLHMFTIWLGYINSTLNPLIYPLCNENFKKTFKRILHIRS
5-hydroxytryptamine receptor 7, sequence (P34969 whole entry): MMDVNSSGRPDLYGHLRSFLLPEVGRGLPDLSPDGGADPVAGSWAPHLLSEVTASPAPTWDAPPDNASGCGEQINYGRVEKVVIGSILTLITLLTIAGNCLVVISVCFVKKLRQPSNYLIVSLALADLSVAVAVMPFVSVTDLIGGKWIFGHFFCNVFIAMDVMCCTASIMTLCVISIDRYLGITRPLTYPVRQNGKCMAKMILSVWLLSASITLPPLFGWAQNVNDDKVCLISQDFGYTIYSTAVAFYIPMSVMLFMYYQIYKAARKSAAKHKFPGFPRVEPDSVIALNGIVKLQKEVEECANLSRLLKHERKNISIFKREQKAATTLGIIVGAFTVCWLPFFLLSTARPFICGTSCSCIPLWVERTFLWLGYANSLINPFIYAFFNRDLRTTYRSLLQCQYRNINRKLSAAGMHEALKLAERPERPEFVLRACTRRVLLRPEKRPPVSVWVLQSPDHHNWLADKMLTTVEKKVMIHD
5-hydroxytryptamine receptor 6, sequence (P50406 whole entry): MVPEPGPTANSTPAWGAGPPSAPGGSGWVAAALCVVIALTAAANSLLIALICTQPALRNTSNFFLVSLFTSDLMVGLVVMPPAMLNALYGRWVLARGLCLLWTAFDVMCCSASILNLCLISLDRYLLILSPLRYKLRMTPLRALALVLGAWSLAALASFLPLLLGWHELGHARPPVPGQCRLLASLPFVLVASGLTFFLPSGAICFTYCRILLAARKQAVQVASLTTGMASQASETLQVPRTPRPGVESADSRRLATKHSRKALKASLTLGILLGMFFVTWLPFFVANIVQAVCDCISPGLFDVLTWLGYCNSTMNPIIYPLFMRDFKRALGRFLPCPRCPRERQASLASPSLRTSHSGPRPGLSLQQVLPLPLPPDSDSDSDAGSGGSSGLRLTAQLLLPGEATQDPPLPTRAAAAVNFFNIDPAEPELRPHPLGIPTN
Sodium-dependent serotonin transporter, sequence (P31645 whole entry): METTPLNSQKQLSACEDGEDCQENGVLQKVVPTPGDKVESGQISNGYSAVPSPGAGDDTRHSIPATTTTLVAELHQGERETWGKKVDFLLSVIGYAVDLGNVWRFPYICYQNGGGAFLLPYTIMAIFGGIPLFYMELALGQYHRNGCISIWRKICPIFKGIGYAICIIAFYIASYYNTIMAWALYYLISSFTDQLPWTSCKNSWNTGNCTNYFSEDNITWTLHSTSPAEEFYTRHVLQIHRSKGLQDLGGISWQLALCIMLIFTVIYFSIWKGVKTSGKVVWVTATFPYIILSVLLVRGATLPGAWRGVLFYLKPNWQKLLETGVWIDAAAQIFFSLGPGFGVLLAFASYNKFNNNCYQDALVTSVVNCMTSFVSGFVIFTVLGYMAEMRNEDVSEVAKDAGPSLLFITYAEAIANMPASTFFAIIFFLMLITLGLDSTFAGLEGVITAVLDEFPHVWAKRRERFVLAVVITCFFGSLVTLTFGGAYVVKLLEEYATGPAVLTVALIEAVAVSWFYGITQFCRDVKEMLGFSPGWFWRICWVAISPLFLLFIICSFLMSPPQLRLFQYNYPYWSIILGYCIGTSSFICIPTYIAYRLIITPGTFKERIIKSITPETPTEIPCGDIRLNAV

`CN(C)CCCN1C(=O)c2ccccc2N(C)C(=O)c2ccccc21` was tested, and the Ki [1] was “Not Active” and the Ki (Histamine H1 receptor; read-out: Ki) was greater than 10 µM.
`CN(C)CCCN1C(=O)c2ccccc2CCc2ccccc21` was tested, and the Ki ([1]; read-out: Ki) was greater than 100 µM and the Ki (Histamine H1 receptor; read-out: Ki) was 0.81 µM.
`CN(C)CCN1C(=O)c2ccccc2/C=C\c2ccccc21` was tested, and the Ki [2] was 85.2 µM, the Ki [3] was 20.1 µM and the Ki [4] was 74.4 µM. For the same molecule, the Ki [5] was 77.2 µM, the Ki ([1]; read-out: Ki) was 4.6 µM and the Ki (Histamine H1 receptor; read-out: Ki) was 0.12 µM. It also gave a Ki (D(2) dopamine receptor) of 11.6 µM.
For `CN(C)CCN1C(=O)c2ccccc2N(C)c2ccccc21` [DIBENZEPIN], the Ki [2] was 12.3 µM, the Ki [3] was 3.3 µM and the Ki [4] was 7.2 µM. The Ki [5] was 2.5 µM, the Ki ([1]; read-out: Ki) was 10.9 µM and the Ki (Histamine H1 receptor; read-out: Ki) was 0.02 µM. It also gave a Ki (D(2) dopamine receptor) of 30.2 µM.
`COc1cc2c(cc1OC)N(CCCN(C)C)C(=O)c1ccccc1N(C)C2=O` was tested, and the Ki [1] was “Not Active” and the Ki (Histamine H1 receptor) was “Not Active”.
For `O=C1c2ccccc2/C=C\c2ccccc2N1CCCN1CCOCC1`, the Ki [2] was greater than 100 µM, the Ki [3] was 75.3 µM and the Ki [4] was greater than 100 µM. The Ki [5] was 39.4 µM, the Ki ([1]; read-out: Ki) was greater than 100 µM and the Ki (Histamine H1 receptor) was “Not Active”. It also gave a Ki (D(2) dopamine receptor) of 19.1 µM.
`COc1cc2c(cc1OC)N(CCN(C)C)C(=O)c1ccccc1N(C)C2=O` was tested, and the Ki ([1]; read-out: Ki) was greater than 100 µM and the Ki (Histamine H1 receptor; read-out: Ki) was greater than 10 µM.
`CN(C)CCN1C(=O)c2ccccc2N(C)C(=O)c2ccccc21` showed a Ki [2] greater than 100 µM, a Ki [3] of 40.4 µM and a Ki [4] greater than 100 µM. The Ki [5] was greater than 100 µM, the Ki [1] was “Not Active” and the Ki (Histamine H1 receptor; read-out: Ki) was greater than 10 µM. It also gave a Ki (D(2) dopamine receptor) of 65.3 µM.
With `CN(C)CCCN1C(=O)c2ccccc2C(=O)N(Cc2ccccc2)c2ccccc21` the Ki ([1]; read-out: Ki) was greater than 100 µM and the Ki (Histamine H1 receptor) was “Not Active”.
`CN(C)CCCN1C(=O)c2ccccc2/C=C\c2ccccc21` was tested, and the Ki [2] was greater than 100 µM, the Ki [3] was 23.4 µM and the Ki [4] was 17.1 µM. For the same molecule, the Ki [5] was 41.6 µM, the Ki ([1]; read-out: Ki) was 36.9 µM and the Ki (Histamine H1 receptor; read-out: Ki) was 0.43 µM. The Ki (D(2) dopamine receptor) was 9 µM.
In the case of `CN1CCN(CCCN2C(=O)c3ccccc3/C=C\c3ccccc32)CC1`, the Ki [2] is reported as greater than 100 µM, the Ki [3] is reported as 21.1 µM and the Ki [4] is reported as 48.3 µM. For the same molecule, the Ki [5] was 87.7 µM, the Ki [1] was “Not Active” and the Ki (Histamine H1 receptor; read-out: Ki) was greater than 5 µM. The Ki (D(2) dopamine receptor) was 7.5 µM.
In the case of `CN(C)CCN1C(=O)c2cc(Cl)ccc2N(C)C(=O)c2cc3ccccc3cc21`, the Ki [1] is reported as “Not Active” and the Ki (Histamine H1 receptor; read-out: Ki) is reported as greater than 5 µM.
`CN(C)CCN1C(=O)c2ccccc2CCc2ccccc21` was tested, and the Ki ([1]; read-out: Ki) was 12.4 µM and the Ki (Histamine H1 receptor; read-out: Ki) was 0.29 µM.
For `CN(C)CCN1C(=O)c2ccccc2C(=O)N(Cc2ccccc2)c2ccccc21`, the Ki [1] was “Not Active” and the Ki (Histamine H1 receptor) was “Not Active”.
For `CN(C)CCCN1C(=O)c2cc(Cl)ccc2N(C)C(=O)c2cc3ccccc3cc21`, the Ki [1] was “Not Active” and the Ki (Histamine H1 receptor) was “Not Active”.
